Laboratory results published in patent publication US20090156577A1, “7-AMINO ALKYLIDENYL-HETEROCYCLIC QUINOLONES AND NAPHTHYRIDONES” (priority 2004, published 2009).
In brackets after ≈: the same amount, converted by molar mass. Structures can show the parent of a compound that is named as a salt. Where two headings read alike, the source gives them in different places.

System: pathogenic bacteria
Assay: MIC by microdilution broth method (NCCLS M7-A4), in vitro antibacterial activity
Type: cell-based
Outline: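 Broth microdilution per NCCLS M7-A4: two-fold serial dilutions in cation-adjusted Mueller-Hinton broth, inoculum about 5×10^4 CFU/well. Trays incubated 16–20 h at 35 °C. MIC read by comparing growth against no-compound growth controls.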

[1] = Staphylococcus aureus, Organism A: Staphylococcus aureus OC4172, read-out: MIC
[2] = Streptococcus pneumoniae, ATCC49619, Organism E: Streptococcus pneumoniae ATCC 49619, read-out: MIC
[3] = Streptococcus pneumoniae, Organism C: fluoroquinolone-resistant clinical isolate of Streptococcus pneumoniae (QRDR amino acid substitutions)
[4] = Streptococcus pneumoniae, Organism D: fluoroquinolone-resistant clinical isolate of Streptococcus pneumoniae (QRDR amino acid substitutions)
[5] = Streptococcus pneumoniae, Organism B: fluoroquinolone-resistant clinical isolate of Streptococcus pneumoniae (QRDR amino acid substitutions)
[6] = Staphylococcus aureus, Organism A: Staphylococcus aureus OC4172
[7] = Streptococcus pneumoniae, ATCC49619, Organism E: Streptococcus pneumoniae ATCC 49619

In the case of `NC/C(Cl)=C1/CCCN(c2nc3c(cc2F)c(=O)c(C(=O)O)cn3C2CC2)C1` [Compound 254, (E)-7-[3-(2-Amino-1-chloro-ethylidene)-piperidin-1-yl]-1-cyclopropyl-6-fluoro-4-oxo-1,4-dihydro-[1,8]naphthyridine-3-carboxylic acid], the MIC [1] is reported as 0.06 µg/mL (≈ 0.147 µM), the MIC [2] is reported as 0.25 µg/mL (≈ 0.614 µM) and the MIC [3] is reported as 4 µg/mL (≈ 9.83 µM). The MIC [4] was 4 µg/mL (≈ 9.83 µM).

With `NC/C(Cl)=C1\CCCN(c2nc3c(cc2F)c(=O)c(C(=O)O)cn3C2CC2)C1` [Compound 255, (Z)-7-[3-(2-Amino-1-chloro-ethylidene)-piperidin-1-yl]-1-cyclopropyl-6-fluoro-4-oxo-1,4-dihydro-[1,8]naphthyridine-3-carboxylic acid] the MIC [1] was 0.5 µg/mL (≈ 1.23 µM), the MIC [2] was 4 µg/mL (≈ 9.83 µM) and the MIC [5] was 2 µg/mL (≈ 4.92 µM). For the same molecule, the MIC [3] was 4 µg/mL (≈ 9.83 µM) and the MIC [4] was 16 µg/mL (≈ 39.3 µM).

`NC/C(F)=C1/CCCN(c2cc3c(cc2F)c(=O)c(C(=O)O)cn3C2CC2)C1` [Compound 256, (E)-7-[3-(2-Amino-1-fluoro-ethylidene)-piperidin-1-yl]-1-cyclopropyl-6-fluoro-4-oxo-1,4-dihydro-quinoline-3-carboxylic Acid Trifluoroacetic Acid Salt] was tested, and the MIC [6] was 0.03 µg/mL, the MIC [7] was 0.06 µg/mL and the MIC [5] was 1 µg/mL. It also gave an MIC [3] of 1 µg/mL and an MIC [4] of 1 µg/mL.

`NC/C(Cl)=C1/CCCN(c2cc3c(cc2F)c(=O)c(C(=O)O)cn3C2CC2)C1` [Compound 257, (E)-7-[3-(2-Amino-1-chloro-ethylidene)-piperidin-1-yl]-1-cyclopropyl-6-fluoro-4-oxo-1,4-dihydro-quinoline-3-carboxylic acid] was tested, and the MIC [1] was 0.03 µg/mL (≈ 0.0739 µM), the MIC [2] was 0.06 µg/mL (≈ 0.148 µM) and the MIC [5] was 0.5 µg/mL (≈ 1.23 µM). For the same molecule, the MIC [3] was 0.5 µg/mL (≈ 1.23 µM) and the MIC [4] was 0.5 µg/mL (≈ 1.23 µM).

Work on `NC/C(Cl)=C1\CCCN(c2cc3c(cc2F)c(=O)c(C(=O)O)cn3C2CC2)C1` [Compound 258, (Z)-7-[3-(2-Amino-1-chloro-ethylidene)-piperidin-1-yl]-1-cyclopropyl-6-fluoro-4-oxo-1,4-dihydro-quinoline-3-carboxylic acid] yielded an MIC [1] of no more than 4 µg/mL, an MIC [2] of 8 µg/mL (≈ 19.7 µM) and an MIC [5] of 8 µg/mL (≈ 19.7 µM). It also gave an MIC [3] greater than 16 µg/mL and an MIC [4] greater than 16 µg/mL.

`NC/C(F)=C1/CCCN(c2c(F)cc3c(=O)c(C(=O)O)cn(C4CC4)c3c2OC(F)F)C1` [Compound 259, (E)-7-[3-(2-Amino-1-fluoro-ethylidene)-piperidin-1-yl]-1-cyclopropyl-8-difluoromethoxy-6-fluoro-4-oxo-1,4-dihydro-quinoline-3-carboxylic acid] showed an MIC [1] of 0.03 µg/mL (≈ 0.0659 µM), an MIC [2] of 0.06 µg/mL (≈ 0.132 µM) and an MIC [5] of 0.5 µg/mL (≈ 1.1 µM). The MIC [3] was 1 µg/mL (≈ 2.2 µM) and the MIC [4] was 0.12 µg/mL (≈ 0.263 µM).

For `NC/C(Cl)=C1/CCCN(c2c(F)cc3c(=O)c(C(=O)O)cn(C4CC4)c3c2OC(F)F)C1` [Compound 260, (E)-7-[3-(2-Amino-1-chloro-ethylidene)-piperidin-1-yl]-1-cyclopropyl-8-difluoromethoxy-6-fluoro-4-oxo-1,4-dihydro-quinoline-3-carboxylic acid], the MIC [1] was 0.03 µg/mL (≈ 0.0636 µM), the MIC [2] was 0.06 µg/mL (≈ 0.127 µM) and the MIC [3] was 0.5 µg/mL (≈ 1.06 µM). The MIC [4] was 0.06 µg/mL (≈ 0.127 µM).

Work on `COc1c(N2CCC/C(=C(\Cl)CN)C2)c(F)cc2c(=O)c(C(=O)O)cn(C3CC3)c12` [Compound 261, (E)-7-[3-(2-Amino-1-chloro-ethylidene)-piperidin-1-yl]-1-cyclopropyl-6-fluoro-8-methoxy-4-oxo-1,4-dihydro-quinoline-3-carboxylic Acid Trifluoroacetic Acid Salt] yielded an MIC [6] of no more than 0.015 µg/mL, an MIC [7] of no more than 0.015 µg/mL and an MIC [5] of 0.06 µg/mL. It also gave an MIC [3] of 0.06 µg/mL and an MIC [4] of 0.06 µg/mL.

`COc1c(N2CCC(=C(Cl)CN)CC2)c(F)cc2c(=O)c(C(=O)O)cn([C@@H]3C[C@@H]3F)c12` [Compound 262, 7-[4-(2-Amino-1-chloro-ethylidene)-piperidin-1-yl]-6-fluoro-(1R,2S)-1-(2-fluoro-cyclopropyl)-8-methoxy-4-oxo-1,4-dihydro-quinoline-3-carboxylic acid] gave an MIC [1] of no more than 0.015 µg/mL, an MIC [2] of 0.25 µg/mL (≈ 0.551 µM) and an MIC [3] of 1 µg/mL (≈ 2.2 µM). The MIC [4] was 1 µg/mL (≈ 2.2 µM).

With `Cc1c(F)c(N2CCC(=C(Cl)CN)CC2)cc2c1c(=O)c(C(=O)O)cn2C1CC1` [Compound 263, 7-[4-(2-Amino-1-chloro-ethylidene)-piperidin-1-yl]-1-cyclopropyl-6-fluoro-5-methyl-4-oxo-1,4-dihydro-quinoline-3-carboxylic Acid] the MIC [1] was 0.03 µg/mL (≈ 0.0714 µM), the MIC [2] was 0.12 µg/mL (≈ 0.286 µM) and the MIC [5] was 0.5 µg/mL (≈ 1.19 µM). It also gave an MIC [3] of 1 µg/mL (≈ 2.38 µM) and an MIC [4] of 0.5 µg/mL (≈ 1.19 µM).

For `CNCC(Cl)=C1CCN(c2c(F)cc3c(=O)c(C(=O)O)cn(C4CC4)c3c2O)CC1.Cl` [Compound 267, 7-[4-(1-Chloro-2-methylamino-ethylidene)-piperidin-1-yl]-1-cyclopropyl-6-fluoro-8-hydroxy-4-oxo-1,4-dihydro-quinoline-3-carboxylic Acid Hydrochloride Salt], the MIC [1] was 0.12 µg/mL, the MIC [2] was 0.5 µg/mL and the MIC [5] was 2 µg/mL. The MIC [3] was 2 µg/mL and the MIC [4] was 2 µg/mL.

In the case of `NCC(Cl)=C1CN(c2c(F)cc3c(=O)c(C(=O)O)cn(-c4nc(N)c(F)cc4F)c3c2Cl)C1` [Compound 268, 7-[3-(2-Amino-1-chloro-ethylidene)-azetidin-1-yl]-1-(6-amino-3,5-difluoro-pyridin-2-yl)-8-chloro-6-fluoro-4-oxo-1,4-dihydro-quinoline-3-carboxylic Acid], the MIC [1] is reported as no more than 0.015 µg/mL, the MIC [2] is reported as 0.03 µg/mL (≈ 0.06 µM) and the MIC [5] is reported as 0.06 µg/mL (≈ 0.12 µM). It also gave an MIC [3] of 0.12 µg/mL (≈ 0.24 µM) and an MIC [4] of 0.12 µg/mL (≈ 0.24 µM).

Molecule `NCC(F)=C1CN(c2c(F)cc3c(=O)c(C(=O)O)cn(-c4nc(N)c(F)cc4F)c3c2Cl)C1` [Compound 269, 1-(6-Amino-3,5-difluoro-pyridin-2-yl)-7-[3-(2-amino-1-fluoro-ethylidene)-azetidin-1-yl]-8-chloro-6-fluoro-4-oxo-1,4-dihydro-quinoline-3-carboxylic acid] has an MIC [1] of no more than 0.015 µg/mL, an MIC [2] of 0.03 µg/mL (≈ 0.062 µM) and an MIC [5] of 0.25 µg/mL (≈ 0.517 µM). For the same molecule, the MIC [3] was 0.06 µg/mL (≈ 0.124 µM).

With `NCC(Cl)=C1CCN(c2c(F)cc3c(=O)c(C(=O)O)cn(-c4nc(N)c(F)cc4F)c3c2Cl)CC1` [Compound 270, 7-[4-(2-Amino-1-chloro-ethylidene)-piperidin-1-yl}-1-(6-amino-3,5-difluoropyridin-2-yl)-8-chloro-6-fluoro-4-oxo-1,4-dihydro-quinoline-3-carboxylic Acid] the MIC [1] was 0.06 µg/mL (≈ 0.114 µM), the MIC [2] was 0.5 µg/mL (≈ 0.946 µM) and the MIC [3] was 4 µg/mL (≈ 7.57 µM). For the same molecule, the MIC [4] was 2 µg/mL (≈ 3.79 µM).

Molecule `NCC(Cl)=C1CCN(c2nc3c(cc2F)c(=O)c(C(=O)O)cn3-c2ccc(F)cc2F)CC1` [Compound 271, 7-[4-(2-Amino-1-chloro-ethylidene)-piperidin-1-yl]-1-(2,4-difluoro-phenyl)-6-fluoro-4-oxo-1,4-dihydro-[1,8]naphthyridine-3-carboxylic acid] has an MIC [1] of no more than 0.015 µg/mL, an MIC [2] of 0.12 µg/mL (≈ 0.251 µM) and an MIC [5] of 1 µg/mL (≈ 2.09 µM). It also gave an MIC [3] of 1 µg/mL (≈ 2.09 µM) and an MIC [4] of 1 µg/mL (≈ 2.09 µM).

`NCC(F)=C1CN(c2cc3c(cc2F)c(=O)c(C(=O)O)cn3C2CC2)C1` [Compound 272, 7-[3-(2-amino-1-fluoro-ethylidene)-azetidin-1-yl]-1-cyclopropyl-6-fluoro-4-oxo-1,4-dihydro-quinoline-3-carboxylic acid] gave an MIC [1] of no more than 0.015 µg/mL, an MIC [2] of 0.5 µg/mL (≈ 1.38 µM) and an MIC [5] of 4 µg/mL (≈ 11.1 µM). The MIC [3] was 0.5 µg/mL (≈ 1.38 µM).

In the case of `COc1c(N2CC(=C(F)CN)C2)c(F)cc2c(=O)c(C(=O)O)cn(C3CC3)c12` [Compound 273, 7-[3-(2-amino-1-fluoro-ethylidene)-azetidin-1-yl]-1-cyclopropyl-6-fluoro-8-methoxy-4-oxo-1,4-dihydro-quinoline-3-carboxylic acid], the MIC [1] is reported as 0.03 µg/mL (≈ 0.0767 µM), the MIC [2] is reported as 4 µg/mL (≈ 10.2 µM) and the MIC [5] is reported as 4 µg/mL (≈ 10.2 µM). The MIC [3] was 0.5 µg/mL (≈ 1.28 µM).

Work on `COc1c(N2CC(=C(F)CN)C2)ccc2c(=O)c(C(=O)O)cn(C3CC3)c12` [Compound 274, 7-[3-(2-amino-1-fluoro-ethylidene)-azetidin-1-yl]-1-cyclopropyl-8-methoxy-4-oxo-1,4-dihydro-quinoline-3-carboxylic acid] yielded an MIC [1] of 0.06 µg/mL (≈ 0.161 µM), an MIC [2] of 1 µg/mL (≈ 2.68 µM) and an MIC [5] of 4 µg/mL (≈ 10.7 µM). The MIC [3] was 1 µg/mL (≈ 2.68 µM).

With `COc1c(N2CCC(=C(Cl)CN)CC2)ccc2c(=O)c(C(=O)O)cn(C3CC3)c12` [Compound 275, 7-[4-(2-Amino-1-chloro-ethylidene)-piperidin-1-yl]-1-cyclopropyl-8-methoxy-4-oxo-1,4-dihydro-quinoline-3-carboxylic acid] the MIC [1] was 0.03 µg/mL (≈ 0.0718 µM), the MIC [2] was 0.12 µg/mL (≈ 0.287 µM) and the MIC [5] was 1 µg/mL (≈ 2.39 µM). The MIC [3] was 1 µg/mL (≈ 2.39 µM) and the MIC [4] was 1 µg/mL (≈ 2.39 µM).

Molecule `C[C@H]1COc2c(N3CC(=C(F)CN)C3)c(F)cc3c(=O)c(C(=O)O)cn1c23` [Compound 276, 9-[3-(2-Amino-1-fluoro-ethylidene)-azetidin-1-yl]-8-fluoro-(3S)-3-methyl-6-oxo-2,3-dihydro-6H-1-oxa-3a-aza-phenalene-5-carboxylic acid] has an MIC [1] of no more than 0.015 µg/mL, an MIC [2] of 0.25 µg/mL (≈ 0.663 µM) and an MIC [5] of 0.5 µg/mL (≈ 1.33 µM). It also gave an MIC [3] of 2 µg/mL (≈ 5.3 µM) and an MIC [4] of 4 µg/mL (≈ 10.6 µM).

`C[C@H]1COc2c(N3CCC(=C(Cl)CN)CC3)c(F)cc3c(=O)c(C(=O)O)cn1c23` [Compound 277, 9-[4-(2-Amino-1-chloro-ethylidene)-piperidin-1-yl]-8-fluoro-(3S)-3-methyl-6-oxo-2,3-dihydro-6H-1-oxa-3a-aza-phenalene-5-carboxylic acid] was tested, and the MIC [1] was no more than 0.015 µg/mL, the MIC [2] was 0.03 µg/mL (≈ 0.0711 µM) and the MIC [5] was 0.25 µg/mL (≈ 0.593 µM). The MIC [3] was 0.25 µg/mL (≈ 0.593 µM) and the MIC [4] was 0.5 µg/mL (≈ 1.19 µM).

`N#CC(CN)=C1CCN(c2nc3c(cc2F)c(=O)c(C(=O)O)cn3C2CC2)CC1` [Compound 283, 7-[4-(2-Amino-1-cyano-ethylidene)-piperidin-1-yl]-1-cyclopropyl-6-fluoro-4-oxo-1,4-dihydro-[1,8]naphthyridine-3-carboxylic Acid] was tested, and the MIC [1] was 0.25 µg/mL (≈ 0.629 µM), the MIC [2] was 0.5 µg/mL (≈ 1.26 µM) and the MIC [5] was 2 µg/mL (≈ 5.03 µM). For the same molecule, the MIC [3] was 4 µg/mL (≈ 10.1 µM) and the MIC [4] was 8 µg/mL (≈ 20.1 µM).
